System: NRF2
Experiment: Western Blot validation of NRF2 nuclear accumulation and extra-nuclear protein phosphorylation
Format: cell-based, human
Procedure: 8. A Western Blot analysis was done on extra-nuclear and intra-nuclear fractions, separated by differential centrifugation, of serum starved HMVEC-L cell cultures exposed to <1% of a composition of the invention compared with a positive hydrogen peroxide control to determine phosphorylation events (oxidant action) in the extra-nuclear fraction and NRF2 (antioxidant transcription) in the intra-nuclear fraction at 0, 30, 60, 90 and 120 min intervals.
HMVEC-L were treated with 1% of a composition of the invention, nuclear extracts were separated through centrifugal differentiation from the extra-nuclear cytosol at 30, 60 and 120 min and subjected to Western Blot analysis for NRF2. In the Western blot experiment the extra-nuclear fraction was probed for phosphorylated proteins using a combination of anti-phospho serine, threonine and tyrosine antibodies. Virtually all cellular processes are regulated by posttranslational modifications and protein phosphorylation is a prevalent mechanism. Observable changes in protein phosphorylation can lead to a mechanistic understanding of the cellular processes perturbed by compositions of the invention and provide a defined endpoint to better define dose-dependent regulation of cell function by compositions of the invention in vitro, as well as provide a potential candidate molecular marker that may be used to provide in vitro-in vivo correlates. […]

## OO [H2O2, Hydrogen peroxide]
HMVEC-L extra-nuclear fraction, 1% composition, H2O2 positive control
  phosphorylation of extra-nuclear protein: marked increase in the phosphorylation
HMVEC-L, 1% ASEA 30, 60, 120 min, H2O2 30 min
  NRF2 levels in nuclear extracts: did not increase nuclear NRF2 levels
